The subject of this data set is human EPAS1 (Hif2α) cDNA in psiCHECK2 (Renilla luciferase/EPAS1 fusion mRNA) in Hep3B cells. Put plainly: Efficacy screen of Hif2α RNAi triggers in vitro, dual-luciferase reporter assay (1 nM and 0.1 nM). Format: cell-based. The following applies: Hep3B cells co-transfected with EPAS1-psiCHECK2, Renilla luciferase normalized to firefly luciferase. A digest of the protocol:
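Knockdown read by dual-luciferase assay: Renilla signal from the Renilla/EPAS1 fusion transcript divided by firefly luciferase expressed from the same plasmid. Triggers (modified canonical siRNAs, 1 nM or 0.1 nM) were co-transfected with 25 ng reporter plasmid per well into human hepatocellular carcinoma Hep3B cells.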
A general note: A reporter such as luciferase makes a cellular process visible.

Strand notation (5' to 3'): a small letter for the sugar, then the base; units joined by * are phosphorothioate-linked, units joined directly phosphodiester-linked; [ ] holds rarer units or linkages, { } end groups; capitals alone tell only the bases. d = 2'-deoxy (DNA); m = 2'-O-methyl; f = 2'-fluoro

On to “2353 (sense fUmGfCmCfAmUfAmGfGmUfGmUfGmAfCmAfAmUfAdT; antisense dTfAmUfUmGfUmCfAmCfAmCfCmUfAmUfGmGfCmAdT*dT; siRNA) [compound 2353]”, for which the “Relative Rluc-Hif2α” value by setting is: (0.1 nM RNAi trigger) 0.635 ± 0.156; (1 nM RNAi trigger) 0.324 ± 0.075.
Regarding “2354 (sense fCmCfAmUfAmGfGmUfGmUfGmAfCmAfAmUfCmCfAdT; antisense dTfGmGfAmUfUmGfUmCfAmCfAmCfCmUfAmUfGmGdT*dT; siRNA) [compound 2354]”, the “Relative Rluc-Hif2α” value reads like this: (0.1 nM RNAi trigger) 1.043 ± 0.239; (1 nM RNAi trigger) 0.741 ± 0.189.
Consider “2355 (sense fCmAfUmAfGmGfUmGfUmGfAmCfAmAfUmCfCmGfAdT; antisense dTfCmGfGmAfUmUfGmUfCmAfCmAfCmCfUmAfUmGdT*dT; siRNA) [compound 2355]”, for which the “Relative Rluc-Hif2α” value reads like this: (0.1 nM RNAi trigger) 0.457 ± 0.066; (1 nM RNAi trigger) 0.248 ± 0.063.
For “2356 (sense fAmUfAmGfGmUfGmUfGmAfCmAfAmUfCmCfGmAfAdT; antisense dTfUmCfGmGfAmUfUmGfUmCfAmCfAmCfCmUfAmUdT*dT; siRNA) [compound 2356]” the same measures were 0.574 ± 0.006 and 0.210 ± 0.023.
For “2357 (sense fGmGfUmGfUmGfAmCfAmAfUmCfCmGfAmGfCmAfAdT; antisense dTfUmGfCmUfCmGfGmAfUmUfGmUfCmAfCmAfCmCdT*dT; siRNA) [compound 2357]”, in that order: 0.737 ± 0.082 and 0.435 ± 0.062.
For “2358 (sense fAmCfAmAfUmCfCmGfAmGfCmAfGmUfGmGfAmGfAdT; antisense dTfCmUfCmCfAmCfUmGfCmUfCmGfGmAfUmUfGmUdT*dT; siRNA) [compound 2358]” the same measures were 0.647 ± 0.113 and 0.731 ± 0.123.
Take “2359 (sense fCmCfGmAfGmCfAmGfUmGfGmAfGmUfCmAfUmUfAdT; antisense dTfAmAfUmGfAmCfUmCfCmAfCmUfGmCfUmCfGmGdT*dT; siRNA) [compound 2359]”: the “Relative Rluc-Hif2α” value by setting is: (0.1 nM RNAi trigger) 0.576 ± 0.208; (1 nM RNAi trigger) 0.354 ± 0.022.
For “2360 (sense fGmGfGmAfGmCfAmCfUmGfCmGfCmGfCmUfAmUfAdT; antisense dTfAmUfAmGfCmGfCmGfCmAfGmUfGmCfUmCfCmCdT*dT; siRNA) [compound 2360]”, in that order: 1.102 ± 0.119 and 0.962 ± 0.167.
For “2361 (sense fGmGfAmGfCmAfCmUfGmCfGmCfGmCfUmAfUmCfAdT; antisense dTfGmAfUmAfGmCfGmCfGmCfAmGfUmGfCmUfCmCdT*dT; siRNA) [compound 2361]” the same measures were 0.800 ± 0.198 and 0.603 ± 0.133.
For “2362 (sense fAmGfCmAfCmUfGmCfGmCfGmCfUmAfUmCfCmCfAdT; antisense dTfGmGfGmAfUmAfGmCfGmCfGmCfAmGfUmGfCmUdT*dT; siRNA) [compound 2362]”, the “Relative Rluc-Hif2α” value (0.1 nM RNAi trigger) turned out to be 0.673 ± 0.089 and the “Relative Rluc-Hif2α” value (1 nM RNAi trigger) is recorded as 0.454 ± 0.069.
As to “2363 (sense fUmAfUmUfGmCfUmGfCmCfAmAfGmAfGmGfGmUfAdT; antisense dTfAmCfCmCfUmCfUmUfGmGfCmAfGmCfAmAfUmAdT*dT; siRNA) [compound 2363]”, the “Relative Rluc-Hif2α” value reads like this: (0.1 nM RNAi trigger) 0.653 ± 0.199; (1 nM RNAi trigger) 0.452 ± 0.091.
On to “2364 (sense fGmGfUmCfUmGfAmUfGmGfCmAfCmGfUmUfGmUfAdT; antisense dTfAmCfAmAfCmGfUmGfCmCfAmUfCmAfGmAfCmCdT*dT; siRNA) [compound 2364]”, for which the “Relative Rluc-Hif2α” value (0.1 nM RNAi trigger) is on record as 1.070 ± 0.042 and the “Relative Rluc-Hif2α” value (1 nM RNAi trigger) is reported as 0.855 ± 0.282.
Take “2365 (sense fCmUfGmAfUmGfGmCfAmCfGmUfUmGfUmGfGmGfAdT; antisense dTfCmCfCmAfCmAfAmCfGmUfGmCfCmAfUmCfAmGdT*dT; siRNA) [compound 2365]”: the “Relative Rluc-Hif2α” value runs as follows: (0.1 nM RNAi trigger) 1.132 ± 0.107; (1 nM RNAi trigger) 1.259 ± 0.247.
For “2366 (sense fGmGfCmAfCmGfUmUfGmUfGmGfGmGfUmCfGmGfAdT; antisense dTfCmCfGmAfCmCfCmCfAmCfAmAfCmGfUmGfCmCdT*dT; siRNA) [compound 2366]” the same measures were 0.879 ± 0.223 and 0.695 ± 0.115.
With “2367 (sense fGmCfAmCfGmUfUmGfUmGfGmGfGmUfCmGfGmGfAdT; antisense dTfCmCfCmGfAmCfCmCfCmAfCmAfAmCfGmUfGmCdT*dT; siRNA) [compound 2367]”, the “Relative Rluc-Hif2α” value is, setting by setting: (0.1 nM RNAi trigger) 0.665 ± 0.064; (1 nM RNAi trigger) 0.376 ± 0.039.
For “2368 (sense fCmAfCmGfUmUfGmUfGmGfGmGfUmCfGmGfGmGfAdT; antisense dTfCmCfCmCfGmAfCmCfCmCfAmCfAmAfCmGfUmGdT*dT; siRNA) [compound 2368]” the same measures were 1.036 ± 0.063 and 1.140 ± 0.221.
For “2369 (sense fGmCfGmGfGmGfAmAfGmUfGmCfUmCfUmAfAmCfAdT; antisense dTfGmUfUmAfGmAfGmCfAmCfUmUfCmCfCmCfGmCdT*dT; siRNA) [compound 2369]” the same measures were 0.464 ± 0.032 and 0.338 ± 0.055.
For “2370 (sense fCmGfGmGfGmAfAmGfUmGfCmUfCmUfAmAfCmUfAdT; antisense dTfAmGfUmUfAmGfAmGfCmAfCmUfUmCfCmCfCmGdT*dT; siRNA) [compound 2370]”, in that order: 0.498 ± 0.128 and 0.294 ± 0.026.
Regarding “2371 (sense fUmUfAmAfGmGfUmUfUmUfGmUfUmGfCmUfAmGfAdT; antisense dTfCmUfAmGfCmAfAmCfAmAfAmAfCmCfUmUfAmAdT*dT; siRNA) [compound 2371]”, the “Relative Rluc-Hif2α” value is, setting by setting: (0.1 nM RNAi trigger) 0.193 ± 0.030; (1 nM RNAi trigger) 0.166 ± 0.037.
On to “2372 (sense fGmUfUmGfCmUfAmGfCmCfCmUfUmCfAmAfGmUfAdT; antisense dTfAmCfUmUfGmAfAmGfGmGfCmUfAmGfCmAfAmCdT*dT; siRNA) [compound 2372]”, for which the “Relative Rluc-Hif2α” value by setting is: (0.1 nM RNAi trigger) 0.831 ± 0.103; (1 nM RNAi trigger) 0.514 ± 0.044.
For “2373 (sense fGmAfGmCfUmAfUmGfUmGfAmCfUmCfGmGfAmUfAdT; antisense dTfAmUfCmCfGmAfGmUfCmAfCmAfUmAfGmCfUmCdT*dT; siRNA) [compound 2373]”, in that order: 0.369 ± 0.082 and 0.162 ± 0.032.
On to “2374 (sense fGmCfUmAfUmGfUmGfAmCfUmCfGmGfAmUfGmGfAdT; antisense dTfCmCfAmUfCmCfGmAfGmUfCmAfCmAfUmAfGmCdT*dT; siRNA) [compound 2374]”, for which the “Relative Rluc-Hif2α” value reads like this: (0.1 nM RNAi trigger) 0.355 ± 0.020; (1 nM RNAi trigger) 0.192 ± 0.014.
With “2375 (sense fCmGfGmAfUmGfGmUfCmUfUmUfCmAfCmAfCmGfAdT; antisense dTfCmGfUmGfUmGfAmAfAmGfAmCfCmAfUmCfCmGdT*dT; siRNA) [compound 2375]”, the “Relative Rluc-Hif2α” value by setting is: (0.1 nM RNAi trigger) 0.481 ± 0.062; (1 nM RNAi trigger) 0.305 ± 0.040.
For “2376 (sense fGmAfUmGfGmUfCmUfUmUfCmAfCmAfCmGfGmCfAdT; antisense dTfGmCfCmGfUmGfUmGfAmAfAmGfAmCfCmAfUmCdT*dT; siRNA) [compound 2376]” the same measures were 0.546 ± 0.115 and 0.228 ± 0.029.
For “2377 (sense fUmGfGmUfCmUfUmUfCmAfCmAfCmGfGmCfAmCfAdT; antisense dTfGmUfGmCfCmGfUmGfUmGfAmAfAmGfAmCfCmAdT*dT; siRNA) [compound 2377]” the same measures were 0.900 ± 0.189 and 0.958 ± 0.189.
Consider “2378 (sense fAmAfCmUfAmCfCmAfUmGfAmGfAmUfGmGfUmUfAdT; antisense dTfAmAfCmCfAmUfCmUfCmAfUmGfGmUfAmGfUmUdT*dT; siRNA) [compound 2378]”, for which the “Relative Rluc-Hif2α” value is 0.994 ± 0.246 (0.1 nM RNAi trigger) and 0.734 ± 0.170 (1 nM RNAi trigger).
For “2379 (sense fUmAfCmCfAmUfGmAfGmAfUmGfGmUfUmUfAmGfAdT; antisense dTfCmUfAmAfAmCfCmAfUmCfUmCfAmUfGmGfUmAdT*dT; siRNA) [compound 2379]”, in that order: 0.858 ± 0.098 and 0.939 ± 0.204.
For “2380 (sense fCmCfAmAfGmCfUmCfAmCfGmAfCmCfUmUfGmGfAdT; antisense dTfCmCfAmAfGmGfUmCfGmUfGmAfGmCfUmUfGmGdT*dT; siRNA) [compound 2380]”, in that order: 1.128 ± 0.285 and 1.722 ± 0.101.
As for “2381 (sense fAmCfGmAfCmCfUmUfGmGfAmGfCmCfCmCfGmUfAdT; antisense dTfAmCfGmGfGmGfCmUfCmCfAmAfGmGfUmCfGmUdT*dT; siRNA) [compound 2381]”, the “Relative Rluc-Hif2α” value turned out to be 0.756 ± 0.109 (0.1 nM RNAi trigger) and 1.063 ± 0.191 (1 nM RNAi trigger).
For “2382 (sense fGmGfGmUfAmAfGmAfGmGfGmAfCmGfAmCfAmCfAdT; antisense dTfGmUfGmUfCmGfUmCfCmCfUmCfUmUfAmCfCmCdT*dT; siRNA) [compound 2382]” the same measures were 1.070 ± 0.064 and 1.151 ± 0.365.
For “2383 (sense fGmGfUmAfAmGfAmGfGmGfAmCfGmAfCmAfCmCfAdT; antisense dTfGmGfUmGfUmCfGmUfCmCfCmUfCmUfUmAfCmCdT*dT; siRNA) [compound 2383]”, in that order: 0.833 ± 0.082 and 1.060 ± 0.292.
For “2384 (sense fGmUfAmAfGmAfGmGfGmAfCmGfAmCfAmCfCmUfAdT; antisense dTfAmGfGmUfGmUfCmGfUmCfCmCfUmCfUmUfAmCdT*dT; siRNA) [compound 2384]”, in that order: 0.533 ± 0.067 and 0.439 ± 0.101.

The values are drawn from US9976141B2, “Compositions and methods for inhibiting gene expression of Hif2alpha” (Arrowhead Madison Inc., priority 2015, dated 2018).
